From patent publication US7951842B2, “Use of Cupuassu butter based amphoteric amidoamines as amphoteric surfactants” (Cognis Brasil Ltda., priority 2004, dated 2011)

Assays:
animals = conditions: in vivo
Description: The toxicological profile of the Cupuassuamido propyl betaine was compared to Cocamido propyl betaine.

Description for Red Blood Cell: The Red Blood Cell Test (RBC) was carried out with the combination of Sodium Lauryl Ether Sulfate (SLES) and Cupuassuamido Propyl Betaine (CupAPB) or Sodium Lauryl Ether Sulfate (SLES) and Cocamido Propyl Betaine (CAPB) in different concentrations.

| H/O (Red Blood Cell) | oxidation (O) (Red Blood Cell) | Substance | hemolysis (H) (Red Blood Cell) | Cumulative Dermic Irritation (animals) | Ocular Irritability (animals) | Primary Dermic Irritation (animals) |
| --- | --- | --- | --- | --- | --- | --- |
| 17.1 | 16.10 | Sodium Laureth Sulfate [SLES (7.10%)] | 275.0 | – | – | – |
| – | – | Cupuassuamido propyl betaine | – | Minimum irritating | Not irritating | Not irritating |
| – | – | Cocamido propyl betaine | – | Moderately irritating | Moderately irritating | Minimum irritating |
